This is an account of results in patent US12692287B2, “Polymorphic form of reduced B-nicotinamide mononucleotide calcium salt, and preparation method and use therefor” (EffePharm (Shanghai) Co., Ltd., priority 2023, dated 2026).

Series [1] in a line: Hygroscopicity: solids placed openly at 25° C. and 65% RH, water content by KF. The class given is physicochemical. As to the method:
The solid forms of NMNH calcium salt crystalline form A, crystalline form B, crystalline form C, crystalline form D, and crystalline form E were placed openly in a stability test chamber at 25° C. and 65% RH to evaluate their stability and hygroscopicity.

Series [2] can be described thus: Stability: solids placed openly in a stability test chamber at 25° C. and 65% RH, purity by HPLC. The class given is physicochemical. The settings on record: calcium salt. An excerpt:
NMNH is the reduced form of NMN, sensitive to air, easily oxidized, and unstable, making it unsuitable for long-term storage and market promotion. WO2023160405 (A1) reported the NMNH disodium salt compound and its crystalline and amorphous forms. […] Such stability fails to meet the shelf-life requirements for commercial products, hindering market promotion. The solid forms of NMNH calcium salt crystalline form A, crystalline form B, crystalline form C, crystalline form D, and crystalline form E were placed openly in a stability test chamber at 25° C. and 65% RH to evaluate their stability and hygroscopicity.

For series [3] the following is noted: cited from earlier work; for Purity (HPLC, area %) / Appearance of the solid: 25° C., 65% RH, data of WO2023160405 (A1); for Purity: 25° C. and 65% RH / air, WO2023160405 (A1).
The conditions of series [4]: WO2023160405 (A1); cited from earlier work.

Molecules are shown by their SMILES. Where two headings read alike, the source gives them in different places.

On to `NC(=O)C1=CN([C@@H]2O[C@H](COP(=O)(O)O)[C@@H](O)[C@H]2O)C=CC1.[Ca+2]` [NMNH calcium salt Crystalline Form C, reduced β-nicotinamide mononucleotide calcium salt], for which the “Water content of NMNH calcium salt crystalline form (KF)” value is 9.5% in series [1] (0 day), 9.5% in series [1] (5 days) and 9.3% in series [1] (60 days). Also, the “Purity (HPLC, area %)” value was 99.78 area % in series [2] (0 day), 99.78 area % in series [2] (5 days) and 99.79 area % in series [2] (60 days).

As to `NC(=O)C1=CN([C@@H]2O[C@H](COP(=O)(O)O)[C@@H](O)[C@H]2O)C=CC1.[Ca+2]` [NMNH calcium salt Crystalline Form E, reduced β-nicotinamide mononucleotide calcium salt], the “Water content of NMNH calcium salt crystalline form (KF)” value was 20.3% in series [1] (0 day), 20.3% in series [1] (5 days) and 20.0% in series [1] (60 days). Also, the “Purity (HPLC, area %)” value in series [2] (0 day) amounted to 99.60 area %; in series [2] (5 days), 99.60 area %; in series [2] (60 days) it was 99.59 area %.

Take `NC(=O)C1=CN([C@@H]2O[C@H](COP(=O)(O)O)[C@@H](O)[C@H]2O)C=CC1.[Ca+2]` [NMNH calcium salt Crystalline Form D, reduced β-nicotinamide mononucleotide calcium salt]: the “Water content of NMNH calcium salt crystalline form (KF)” value in series [1] (0 day) is 18.4%; in series [1] (5 days), 18.4%; in series [1] (60 days), 18.3%. Also, the “Purity (HPLC, area %)” value in series [2] (0 day), in series [2] (5 days) and in series [2] (60 days) was 99.64 area % each time.

As to `NC(=O)C1=CN([C@@H]2O[C@H](COP(=O)(O)O)[C@@H](O)[C@H]2O)C=CC1.[Ca+2]` [NMNH calcium salt Crystalline Form A, reduced β-nicotinamide mononucleotide calcium salt], the “Water content of NMNH calcium salt crystalline form (KF)” value was determined as 9.2% in series [1] (0 day), 9.2% in series [1] (5 days) and 9.0% in series [1] (60 days). The “Purity (HPLC, area %)” value in series [2] (0 day) was 99.83 area %; in series [2] (5 days), 99.82 area %; in series [2] (60 days), 99.82 area %.

Regarding `NC(=O)C1=CN([C@@H]2O[C@H](COP(=O)(O)O)[C@@H](O)[C@H]2O)C=CC1.[Ca+2]` [NMNH calcium salt Crystalline Form B, reduced β-nicotinamide mononucleotide calcium salt], the “Water content of NMNH calcium salt crystalline form (KF)” value in series [1] (0 day) turned out to be 13.3%; in series [1] (5 days), 13.2%; in series [1] (60 days), 12.9%. In addition, the “Purity (HPLC, area %)” value in series [2] (0 day), in series [2] (5 days) and in series [2] (60 days) was 99.75 area % throughout.

As for `NC(=O)C1=CN([C@@H]2O[C@H](COP(=O)([O-])[O-])[C@@H](O)[C@H]2O)C=CC1.[Na+].[Na+]` [NMNH disodium salt Crystalline Form A, NMNH disodium salt], the “Purity (HPLC, area %)” value in series [3] (0 day, disodium salt) is recorded as 99.33 area %; in series [3] (1 day, disodium salt), 99.27 area %; in series [3] (5 days), 99.01 area %. The Purity in series [3] (after 5 days) was 99.01%; in series [3] (text, initial value before exposure, listed as NMNH disodium salt crystalline Form A, disodium salt) it was 99.33%; in series [3] (text, initial value before exposure, listed as NMNH disodium salt crystalline form A, disodium salt), 99.33%.

Turning to `NC(=O)C1=CN([C@@H]2O[C@H](COP(=O)([O-])[O-])[C@@H](O)[C@H]2O)C=CC1.[Na+].[Na+]` [NMNH disodium salt crystalline form B, NMNH disodium salt], in series [4], the “Behaviour of the crystalline form when stored in the air” value was “absorb water and transform into crystalline form A”.

On to `NC(=O)C1=CN([C@@H]2O[C@H](COP(=O)([O-])[O-])[C@@H](O)[C@H]2O)C=CC1.[Na+].[Na+]` [NMNH disodium salt Amorphous Form, NMNH disodium salt], for which the “Appearance of the solid” value in series [3] (0 day, disodium salt) is reported as “(powder)”; in series [3] (0 day, listed as amorphous solid of NMNH disodium salt, disodium salt), “powder”; in series [3] (after 1 day, disodium salt) it was “(oil)”; in series [3] (after 1 day, listed as NMNH disodium salt amorphous powder, disodium salt), “oil”; in series [3] (after 1 day, listed as amorphous solid of NMNH disodium salt, disodium salt), “oil”. The “Purity (HPLC, area %)” value is listed as 99.30 area % in series [3] (0 day, disodium salt) and 99.02 area % in series [3] (1 day, disodium salt). In addition, the Purity was 99.02% in series [3] (after 1 day); 99.30% in series [3] (initial value before exposure, listed as NMNH disodium salt amorphous powder, disodium salt); 99.30% in series [3] (initial value before exposure, listed as amorphous solid of NMNH disodium salt, disodium salt).
